In US8044052B2, “Biaryl ether urea compounds” (Pfizer Inc., priority 2006, dated 2011):
Where a name gives a salt, the structure may show the parent alone.

Molecular target: T1, Human FAAH (Homo sapiens, UniProt O00519)
T1 construct: made in house
T1 sequence (O00519 1-579): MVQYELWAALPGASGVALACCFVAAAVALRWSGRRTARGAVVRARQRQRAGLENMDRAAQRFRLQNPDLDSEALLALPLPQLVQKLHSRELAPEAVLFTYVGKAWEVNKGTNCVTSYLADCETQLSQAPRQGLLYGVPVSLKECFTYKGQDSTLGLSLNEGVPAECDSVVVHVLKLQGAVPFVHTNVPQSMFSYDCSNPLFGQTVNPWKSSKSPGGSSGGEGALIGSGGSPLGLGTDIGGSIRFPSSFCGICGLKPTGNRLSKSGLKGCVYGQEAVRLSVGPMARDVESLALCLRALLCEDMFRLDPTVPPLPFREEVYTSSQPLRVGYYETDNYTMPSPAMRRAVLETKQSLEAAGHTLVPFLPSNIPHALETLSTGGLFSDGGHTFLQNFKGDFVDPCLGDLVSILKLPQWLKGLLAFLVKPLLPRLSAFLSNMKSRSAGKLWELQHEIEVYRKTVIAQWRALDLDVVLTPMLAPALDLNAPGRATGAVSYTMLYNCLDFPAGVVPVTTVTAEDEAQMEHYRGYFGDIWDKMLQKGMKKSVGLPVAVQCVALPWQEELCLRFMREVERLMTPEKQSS
Experiment: FAAH assay (glutamate dehydrogenase-coupled, oleamide substrate, absorbance at 340 nm)
Assay type: biochemical
Conditions: irreversible inhibition, 1-4 nM FAAH, pH 7.4, 30° C., 90 min; for kinact/KI: read-out: hFAAH kinact/Ki
Description: The FAAH assay was carried out in 384-well clear polystyrene plates in a total volume of 50 μl per well. All percents are by volume. To each well, was placed the reaction mixture (40 μl) containing 1-4 nM FAAH, 50 mM NaPi, pH 7.4, 3 mM α-ketoglutarate, 0.15 mM NADH, 7.5 U/ml glutamate dehydrogenase, 2 mM ADP, 1 mM EDTA, and 0.1% Triton X-100 (The concentration shown for each component is the final concentration in the assay). […] This was immediately followed by the addition of 5 μl oleamide (500 μM) dissolved in 75% EtOH/25% DMSO and the reaction mixture was mixed for 1.5 min. The final concentrations of DMSO and EtOH in the assay were each 7.5%.
Initial velocity data (V) were obtained from the slopes of the initial progressive curves. They were plotted as a function of substrate concentration and fit to the Michaelis-Menten equation (1) using Prism (GraphPad Software, Inc., San Diego, Calif.) software to obtain Km and Vmax values.
To obtain potencies of irreversible inhibitors, progressive curves consistent with first order inhibition kinetics (two-step irreversible inhibition mechanism) were fit to equation (2) by nonlinear least squares regressions to determine kobs values at each inhibitor concentration, where [P]t is the absorbance at time t, V0 is a constant related to the steady state rate of the uninhibited reaction, and kobs is the first order rate constant for enzyme inactivation. The inhibitor dissociation constant (Ki) and the first order rate
[formula] constant of enzyme inactivation at infinite inhibitor concentration (kinact) were then obtained by fitting the kobs vs. [I] curves to equation (3).

| Compound | hFAAH kinact/Ki | kinact/KI |
| --- | --- | --- |
| 4-(3-(5-methylpyridin-2-yloxy)benzylidene)-N-pyridin-3-yl)piperidine-1-carboxamide [Example 44] | 9480 M⁻¹ s⁻¹ | – |
| 4-(3-ethoxy-5-{[5-(trifluoromethyl)pyridin-2-yl]oxy}benzylidene)-N-pyridin-3-ylpiperidine-1-carboxamide trifluoroacetate [Example 74] | 9870 M⁻¹ s⁻¹ | – |
| O=C(Nc1cccnc1)N1CCC(=Cc2cccc(Oc3ccc(C(F)(F)F)cn3)c2)CC1 [Example 1, N-pyridin-3-yl-4-(3-{[5-(trifluoromethyl)pyridin-2-yl]oxy}benzylidene)piperidine-1-carboxamide] | – | 13300 M⁻¹ s⁻¹ |
| Cc1noc(NC(=O)N2CCC(=Cc3cccc(Oc4ccc(C(F)(F)F)cn4)c3)CC2)c1C [Example 2, N-(3,4-dimethylisoxazol-5-yl)-4-(3-{[5-(trifluoromethyl)pyridin-2-yl]oxy}benzylidene)piperidine-1-carboxamide] | – | 5050 M⁻¹ s⁻¹ |
| Cc1ccc(NC(=O)N2CCC(=Cc3cccc(Oc4ccc(C(F)(F)F)cn4)c3)CC2)cn1 [Example 3, N-(6-methylpyridin-3-yl)-4-(3-{[5-(trifluoromethyl)pyridin-2-yl]oxy}benzylidene)piperidine-1-carboxamide] | – | 7800 M⁻¹ s⁻¹ |
| O=C(Nc1cnccn1)N1CCC(=Cc2cccc(Oc3ccc(C(F)(F)F)cn3)c2)CC1 [Example 4, N-pyrazin-2-yl-4-(3-{[5-(trifluoromethyl)pyridin-2-yl]oxy}benzylidene)piperidine-1-carboxamide] | – | 25800 M⁻¹ s⁻¹ |
| O=C(Nc1cccnn1)N1CCC(=Cc2cccc(Oc3ccc(C(F)(F)F)cn3)c2)CC1 [Example 5, N-pyridazin-3-yl-4-(3-{[5-(trifluoromethyl)pyridin-2-yl]oxy}benzylidene)piperidine-1-carboxamide] | – | 24700 M⁻¹ s⁻¹ |
| O=C(Nc1onc2ccccc12)N1CCC(=Cc2cccc(Oc3ccc(C(F)(F)F)cn3)c2)CC1 [Example 6, N-2,1-benzisoxazol-3-yl-4-(3-{[5-(trifluoromethyl)pyridin-2-yl]oxy}benzylidene)piperidine-1-carboxamide] | – | 2510 M⁻¹ s⁻¹ |
| Cc1cncc(NC(=O)N2CCC(=Cc3cccc(Oc4ccc(C(F)(F)F)cn4)c3)CC2)c1 [Example 7, N-(5-methylpyridin-3-yl)-4-(3-{[5-(trifluoromethyl)pyridin-2-yl]oxy}benzylidene)piperidine-1-carboxamide] | – | 2880 M⁻¹ s⁻¹ |
| COc1ccc(NC(=O)N2CCC(=Cc3cccc(Oc4ccc(C(F)(F)F)cn4)c3)CC2)cn1 [Example 8, N-(6-methoxypyridin-3-yl)-4-(3-{[5-(trifluoromethyl)pyridin-2-yl]oxy}benzylidene)piperidine-1-carboxamide] | – | 10100 M⁻¹ s⁻¹ |
| O=C(Nc1ccccn1)N1CCC(=Cc2cccc(Oc3ccc(C(F)(F)F)cn3)c2)CC1 [Example 9] | 3660 M⁻¹ s⁻¹ | – |
| O=C(Nc1ccccc1)N1CCC(=Cc2cccc(Oc3ccc(C(F)(F)F)cn3)c2)CC1 [Example 10, N-phenyl-4-(3-{[5-(trifluoromethyl)pyridin-2-yl]oxy}benzylidene)piperidine-1-carboxamide] | – | 3070 M⁻¹ s⁻¹ |
| N#Cc1ccc(NC(=O)N2CCC(=Cc3cccc(Oc4ccc(C(F)(F)F)cn4)c3)CC2)cn1 [Example 11, N-(6-cyanopyridin-3-yl)-4-(3-{[5-(trifluoromethyl)pyridin-2-yl]oxy}benzylidene)piperidine-1-carboxamide hydrochloride] | – | 4040 M⁻¹ s⁻¹ |
| COc1cnc(NC(=O)N2CCC(=Cc3cccc(Oc4ccc(C(F)(F)F)cn4)c3)CC2)cn1 [Example 12, N-(5-methoxypyrazin-2-yl)-4-(3-{[5-(trifluoromethyl)pyridin-2-yl]oxy}benzylidene)piperidine-1-carboxamide] | – | 10800 M⁻¹ s⁻¹ |
| O=C(Nc1ccc2cc[nH]c2n1)N1CCC(=Cc2cccc(Oc3ccc(C(F)(F)F)cn3)c2)CC1 [Example 13, N-1H-pyrrolo[2,3-b]pyridin-6-yl-4-(3-{[5-(trifluoromethyl)pyridin-2-yl]oxy}benzylidene) piperidine-1-carboxamide] | 3870 M⁻¹ s⁻¹ | – |
| O=C(Nc1ccc2nn[nH]c2c1)N1CCC(=Cc2cccc(Oc3ccc(C(F)(F)F)cn3)c2)CC1 [Example 14, N-1H-1,2,3-benzotriazol-6-yl-4-(3-{[5-(trifluoromethyl)pyridin-2-yl]oxy}benzylidene)piperidine-1-carboxamide] | – | 3190 M⁻¹ s⁻¹ |
| O=C(NC(=O)N1CCC(=Cc2cccc(Oc3ccc(C(F)(F)F)cn3)c2)CC1)c1ccccn1 [Example 15, N-{[4-(3-{[5-(trifluoromethyl)pyridin-2-yl]oxy}benzylidene)piperidin-1-yl]carbonyl}pyridine-2-carboxamide] | – | 12900 M⁻¹ s⁻¹ |
| Cc1cccc(C(=O)NC(=O)N2CCC(=Cc3cccc(Oc4ccc(C(F)(F)F)cn4)c3)CC2)n1 [Example 16, 6-methyl-N-{[4-(3-{[5-(trifluoromethyl)pyridin-2-yl]oxy}benzylidene)piperidin-1-yl]carbonyl}pyridine-2-carboxamide] | – | 2150 M⁻¹ s⁻¹ |
| O=C(Nc1cccnc1)N1CCC(=Cc2cccc(OCc3ccccc3)c2)CC1 [Example 17, 4-[3-(benzyloxy)benzylidene]-N-pyridin-3-ylpiperidine-1-carboxamide] | – | 1620 M⁻¹ s⁻¹ |
| O=C(Nc1onc2ccccc12)N1CCC(=Cc2cccc(Oc3ccc(F)cc3)c2)CC1 [Example 18, N-2,1-benzisoxazol-3-yl-4-[3-(4-fluorophenoxy)benzylidene]piperidine-1-carboxamide] | – | 2730 M⁻¹ s⁻¹ |
| Cc1noc(NC(=O)N2CCC(=Cc3cccc(Oc4ccc(F)cc4)c3)CC2)c1C [Example 19, N-(3,4-dimethylisoxazol-5-yl)-4-[3-(4-fluorophenoxy)benzylidene]piperidine-1-carboxamide] | – | 3450 M⁻¹ s⁻¹ |
| O=C(Nc1cccnc1)N1CCC(=Cc2cccc(Oc3ccc(F)cc3)c2)CC1 [Example 20, 4-[3-(4-fluorophenoxy)benzylidene]-N-pyridin-3-ylpiperidine-1-carboxamide] | – | 2380 M⁻¹ s⁻¹ |
| O=C(Nc1cnc(-c2ccccc2)cn1)N1CCC(=Cc2cccc(Oc3ccc(C(F)(F)F)cn3)c2)CC1 [Example 21, N-(5-phenyl-pyrazin-2-yl)-4-(3-{[5-(trifluoromethyl)pyridin-2-yl]oxy}benzylidene)piperidine-1-carboxamide] | – | 1850 M⁻¹ s⁻¹ |
| Cc1cnc(NC(=O)N2CCC(=Cc3cccc(Oc4ccc(C(F)(F)F)cn4)c3)CC2)cn1 [Example 22, N-(5-methyl-pyrazin-2-yll)-4-(3-{[5-(trifluoromethyl)pyridin-2-yl]oxy}benzylidene)piperidine-1-carboxamide] | 12000 M⁻¹ s⁻¹ | – |
| COc1cncc(NC(=O)N2CCC(=Cc3cccc(Oc4ccc(C(F)(F)F)cn4)c3)CC2)n1 [Example 23, N-(6-methoxypyrazin-2-yl)-4-(3-{[5-(trifluoromethyl)pyridin-2-yl]oxy}benzylidene)piperidine-1-carboxamide] | – | 2910 M⁻¹ s⁻¹ |
| Cc1nccnc1NC(=O)N1CCC(=Cc2cccc(Oc3ccc(C(F)(F)F)cn3)c2)CC1 [Example 24, N-(3-methylpyrazin-2-yl)-4-(3-{[5-(trifluoromethyl)pyridin-2-yl]oxy}benzylidene)piperidine-1-carboxamide] | – | 2410 M⁻¹ s⁻¹ |
| O=C(Nc1ccnnc1)N1CCC(=Cc2cccc(Oc3ccc(C(F)(F)F)cn3)c2)CC1 [Example 25, N-(pyridazin-4-yl)-4-(3-{[5-(trifluoromethyl)pyridin-2-yl]oxy}benzylidene)piperidine-1-carboxamide] | – | 12100 M⁻¹ s⁻¹ |
| COc1ccc(NC(=O)N2CCC(=Cc3cccc(Oc4ccc(C(F)(F)F)cn4)c3)CC2)nn1 [Example 26, N-(6-methoxypyridazin-3-yl)-4-(3-{[5-(trifluoromethyl)pyridin-2-yl]oxy}benzylidene)piperidine-1-carboxamide] | – | 11000 M⁻¹ s⁻¹ |
| O=C(Nc1cncc(Cl)n1)N1CCC(=Cc2cccc(Oc3ccc(C(F)(F)F)cn3)c2)CC1 [Example 27, N-(6-chloropyrazin-2-yl)-4-(3-{[5-(trifluoromethyl)pyridin-2-yl]oxy}benzylidene)piperidine-1-carboxamide] | – | 3900 M⁻¹ s⁻¹ |
